Test results: patent publication EP0098141A2, “Prostaglandin D analogues, process for their preparation and compositions containing them” (ONO PHARMACEUTICAL CO., LTD., priority 1982, dated 1984)

Assays:
[1] = system: cells originated from human mouth tumor (KB-cells); experiment: Inhibition of proliferation using cells originated from human mouth tumor (KB-cells); format: cell-based; details: 96 h, stationary culture at 37°C for 4 days, surviving cell number (Trypan Blue) relative to control
Description: The test on the inhibition of proliferation of cells originated from human mouth tumor was conducted by a well known method. The cells originated from human mouth tumor (KB-cells) were added to Eagle's MEM culture solution containing 10% bovine fetal serum, the number of cells in the culture solution was adjusted to 1x10^5 cells/ml, a solution in ethanol of the test compound was added to give a concentration of […] and the mixture was subjected to stationary culture at 37°C for 4 days. As a control, a culture solution containing 0.1% of ethanol was similarly cultured. After the culture, the culture solutions were stained by the Trypan Blue staining method, and the surviving cell number was measured to determine the degree of inhibition relative to the control.

[2] = system: human myelogenous leukemic cells (HL-60); experiment: Inhibition of proliferation using human myelogenous leukemic cells (HL-60); format: cell-based; details: 96 h, HL-60 cells, stationary culture at 37°C for 4 days, surviving cell number (Trypan Blue) relative to control
Description: The test on the inhibition of proliferation of human myelogenous leukemic cells was conducted by a well known method. The human myelogenous leukemic cells (HL-60) were added to an RPMI culture solution containing 10% bovine fetal serum, the number of cells in the culture solution was adjusted to 1x10^5 cells/ml, a solution in ethanol of the test compound was added to give a concentration of 5µg/ml or 1 µg/ml, and the mixture was subjected to stationary culture at 37°C for 4 days. As a control, a culture solution containing 0.1% of ethanol was similarly cultured. The culture solutions were stained by the Trypan Blue staining method, and the surviving cell number was measured to determine the degree of inhibition relative to the control.

[3] = Acute toxicity by intraperitoneal administration in mice; details: mouse, in vivo, ip
Description: The acute toxicity of the compounds of the present invention was more than 100 mg/kg by intraperitoneal administration in mice, so that the PGD analogues of the present invention may be considered to be sufficiently safe and suitable for medical use.

Ehrlich ascites tumor = experiment: Prolongation of survival of mice inoculated with Ehrlich ascites tumor; format: in vivo; set-up: unit not given here; details: ICR mice inoculated intraperitoneally with Ehrlich ascites tumor cells (3 x 10^6/mouse) on day 0, 20 mg/kg/day intraperitoneally from day 1 to day 5
Description: The test on the prolongation of survival of mice inoculated with Ehrlich ascites tumor was conducted by a well known method. ICR mice, weighing 25 - 30 g, were inoculated with Ehrlich ascites tumor cells (3 x 10^6/mouse) intraperitoneally on day 0. A test compound was administered to mice intraperitoneally at a dose of 20 mg/kg/day from day 1 to day 5. Throughout the experiments, each group consisted of six mice (eight mice in control group). The effects of the test compounds were judged by the prolongation of survival time in days. In the Table 2, T/C was calculated below. [formula]

Q: What does the source list for `CCCCCC=CC=C1C(=O)C=CC1CC=CCCCC(=O)N(C)C` (stereo not shown) [Compound 8, (5Z,9Z,14EZ)-N,N-Dimethyl-11-oxoprosta-5,9,12,14-tetraen-1-amide]?
A: inhibition at 1 µg/mL [1]: 9.5%; inhibition at 5 µg/mL [1]: 100%; inhibition at 1 µg/mL [2]: 30.9%; inhibition at 5 µg/mL [2]: 100%

Q: What does the source list for `CCCCC[C@H](O)/C=C/[C@H]1C(=O)C[C@H](O)[C@@H]1C/C=C\CCCC(=O)CO` [Compound 1, 2-Decarboxy-2-glycoloyl-PGD2]?
A: inhibition at 1 µg/mL [1]: 23.5%; inhibition at 5 µg/mL [1]: 100%; LD50 [3]: 156 mg/kg; T/C (Ehrlich ascites tumor): 75.3; inhibition at 1 µg/mL [2]: 20.4%; inhibition at 5 µg/mL [2]: 96.7%

Q: With `CCCCCC=CC=C1C(=O)C=CC1CC=CCCCC(=O)NS(C)(=O)=O` (stereo not shown) [Compound 5, (5Z,9Z,14EZ)-N-Methanesulfonyl-11-oxoprosta-5,9,12,14-tetraen-1-amide] as the compound, how does the inhibition at 1 µg/mL [1] read?
A: Its inhibition at 1 µg/mL is 0.9%.

Q: And the inhibition at 5 µg/mL [1]?
A: The inhibition at 5 µg/mL was 34.6%.

Q: And the inhibition at 1 µg/mL [2]?
A: The inhibition at 1 µg/mL was 0%.

Q: What about the inhibition at 5 µg/mL [2] of the same compound?
A: The inhibition at 5 µg/mL was 78.1%.

Q: What does the source list for `CCCCC[C@H](O)/C=C/[C@H]1C(=O)C=C[C@@H]1C/C=C\CCCC(=O)NS(C)(=O)=O` [Compound 4, 9-Deoxy-Δ^9-PGD2 methanesulfonylamide]?
A: inhibition at 1 µg/mL [1]: 12.6%; inhibition at 5 µg/mL [1]: 25.5%; inhibition at 1 µg/mL [2]: 3.9%; inhibition at 5 µg/mL [2]: 1.5%

Q: What does the source list for `CCCCC[C@H](O)/C=C/[C@H]1C(=O)C=C[C@@H]1C/C=C\CCCC(N)=O` [Compound 10, (52,9Z,13E)-(15S)-11-Oxo-15-hydroxyprosta-5,9,13-trien-1-amide]?
A: inhibition at 1 µg/mL [1]: 15.4%; inhibition at 5 µg/mL [1]: 100%; LD50 [3]: 167 mg/kg

Q: With `CCCCCC=CC=C1C(=O)C=CC1CC=CCCCC(N)=O` (stereo not shown) [Compound 11, (5Z,9Z,14EZ)-11-Oxoprosta-5,9,12,14-tetraen-1-amide] as the compound, how does the inhibition at 1 µg/mL [1] read?
A: Its inhibition at 1 µg/mL is 0.9%.

Q: And the inhibition at 5 µg/mL [1]?
A: Its inhibition at 5 µg/mL is 100%.

Q: And the T/C (Ehrlich ascites tumor)?
A: The T/C was 155.6.

Q: What does the source list for `CCCCC[C@H](O)/C=C/[C@H]1C(=O)C[C@H](O)[C@@H]1C/C=C\CCCC(N)=O` [Compound 9, (5Z,13E)-(9α,15S)-9,15-Dihydroxy-11-oxoprosta-5,13-dien-1-amide]?
A: inhibition at 1 µg/mL [1]: 2.8%; inhibition at 5 µg/mL [1]: 98.8%; inhibition at 1 µg/mL [2]: 21.5%; inhibition at 5 µg/mL [2]: 97.8%

Q: Which inhibition at 1 µg/mL [1] does the source give for `CCCCCC=CC=C1C(=O)C=CC1CC=CCCCC(=O)CO` (stereo not shown) [Compound 3, (5Z,9Z,14EZ)-1-Hydroxymethylprosta-5,9,12,14-tetraene-1,11-dione] here?
A: The inhibition at 1 µg/mL was 10.6%.

Q: What about the inhibition at 5 µg/mL [1] of the same compound?
A: The inhibition at 5 µg/mL was 100%.

Q: And the T/C (Ehrlich ascites tumor)?
A: The T/C was 244.6.

Q: What about the inhibition at 1 µg/mL [2] of the same compound?
A: Its inhibition at 1 µg/mL is 100%.

Q: And the inhibition at 5 µg/mL [2]?
A: Its inhibition at 5 µg/mL is 100%.

Q: Which inhibition at 1 µg/mL [1] does the source give for `CCCCC[C@H](O)/C=C/[C@H]1C(=O)C=C[C@@H]1C/C=C\CCCC(=O)CO` [Compound 2, 2-Decarboxy-2-glycoloyl-9-deoxy-Δ^9-PGD2] here?
A: Its inhibition at 1 µg/mL is 90.9%.

Q: What about the inhibition at 5 µg/mL [1] of the same compound?
A: Its inhibition at 5 µg/mL is 100%.

Q: And the T/C (Ehrlich ascites tumor)?
A: The T/C was 70.5.

Q: What about the inhibition at 1 µg/mL [2] of the same compound?
A: Its inhibition at 1 µg/mL is 100%.

Q: What about the inhibition at 5 µg/mL [2] of the same compound?
A: Its inhibition at 5 µg/mL is 100%.

Q: For `CCCCC[C@H](O)/C=C/[C@H]1C(=O)C[C@H](O)[C@@H]1C/C=C\CCCC(=O)N(C)C` [Compound 6, (SZ,13E)-(9a,15S)-N,N-Dimethyl-9,15-dihydroxy-11-oxoprosta-5,13-dien-1-amide], which inhibition at 1 µg/mL [1] is on record?
A: The inhibition at 1 µg/mL was 19.6%.

Q: And the inhibition at 5 µg/mL [1]?
A: Its inhibition at 5 µg/mL is 100%.

Q: And the inhibition at 1 µg/mL [2]?
A: The inhibition at 1 µg/mL was 9.9%.

Q: And the inhibition at 5 µg/mL [2]?
A: The inhibition at 5 µg/mL was 99.1%.

Q: For `CCCCC[C@H](O)/C=C/[C@H]1C(=O)C=C[C@@H]1C/C=C\CCCC(=O)N(C)C` [Compound 7, (5Z,9Z,13E)-(15S)-N,N-Dimethyl-11-oxo-15-hydroxyprosta-5,9,13-trien-l-amide], which inhibition at 1 µg/mL [1] is on record?
A: The inhibition at 1 µg/mL was 23.7%.

Q: And the inhibition at 5 µg/mL [1]?
A: The inhibition at 5 µg/mL was 100%.

Q: What about the inhibition at 1 µg/mL [2] of the same compound?
A: The inhibition at 1 µg/mL was 41.8%.

Q: What about the inhibition at 5 µg/mL [2] of the same compound?
A: The inhibition at 5 µg/mL was 100%.
